{
  "source": "paper PMC11111895",
  "about": "“Identification of a dCache-type chemoreceptor in Campylobacter jejuni that specifically mediates chemotaxis towards methyl pyruvate” (Frontiers in Microbiology, 2024)",
  "key": {"[1]": {"test_system": "C. jejuni WT NCTC 11168 cells", "format": "cell-based, Campylobacter jejuni", "conditions": "WT NCTC 11168 cells; microfluidic device, 30 min"}, "[2]": {"target": "Tlp11-LBD homologue (WP_257425542.1, residues 31-331)", "experiment": "MST of Tlp11-LBD homologue", "format": "binding, Campylobacter upsaliensis", "conditions": "C. upsaliensis LBD", "procedure": "(§1) The His-tag dye (MO-L018 RED-tris-NTA, NanoTemper, Germany) was adjusted to a final concentration of 25 nM and used to label the purified protein with a His-tag. The compound was diluted to a series of concentrations in phosphate-buffered saline ([Duan et al., 2023]) with 0.05% Tween 20 (PBS-T) buffer and mixed in a ratio of 1:1 with protein. The mixtures were loaded into capillaries (Monolith™ Series capillaries, NanoTemper) by means of capillary action. Thermophoresis was measured using a Monolith™ NT.115 (NanoTemper) instrument, with 40% excitation and 40% MST power configuration. The time-traces of changes in fluorescence, which reflected the thermophoretic movement of labeled protein affected by different concentrations of compound were recorded, and the dose–response curves were fitted with the ‘temperature jump and thermophoresis’ mode. Data analysis was performed using MO. Affinity Analysis version 2.3 (NanoTemper) and Prism version 8.0.2 (GraphPad Software, United States).\nTo evaluate whether these potential Tlp11-LBD homologues could bind to methyl pyruvate, we conducted a structural analysis of the LBDs of six chemoreceptors from C. coli, H. equorum, H. himalayensis, H. mesocricetorum, H. ganmani, and C. upsaliensis using Alphafold 2. […]"}, "[3]": {"test_system": "C. jejuni 11168ΩTlp11/ΔCheY", "format": "cell-based, Campylobacter jejuni", "conditions": "11168ΩTlp11/ΔCheY; microfluidic device"}, "Tlp11-LBD N268A": {"target": "Tlp11-LBD N268A", "experiment": "MST of Tlp11-LBD mutant N268A", "format": "binding, C. jejuni ATCC 33560", "conditions": "max ligand 2.5 mM", "procedure": "as §1\n(§2) In order to confirm the contribution of L264, N268, I276, Y291, V318, and T320 to the binding to methyl pyruvate, we generated Tlp11-LBD proteins with an alanine point mutation at individual residues, to obtain the mutant proteins L264A, N268A, I276A, Y291A, V318A, and T320A, and then analyzed the binding affinities of methyl pyruvate to these mutants using MST. […]"}, "C. jejuni ATCC 33560": {"test_system": "C. jejuni ATCC 33560", "experiment": "Growth curves in Minimal Essential Medium", "format": "cell-based, Campylobacter jejuni", "conditions": "Minimal Essential Medium with fetal bovine serum, shaking; methyl pyruvate at concentrations above 1 mM", "procedure": "The C. jejuni ATCC 33560, C. jejuni WT NCTC 11168 and 11168ΩTlp11 cells were grown on a MH agar plate overnight, at 37°C, under microaerobic conditions. The colonies were suspended in PBS ([Duan et al., 2023]), pH 7.2, inoculated into Minimal Essential Medium broth (Life Technologies) containing 10% fetal bovine serum to an initial OD600 of 0.01, and grown at 37°C, 100 rpm, under microaerobic conditions. When required, Minimal Essential Medium was supplemented with different concentrations of methyl pyruvate or pyruvate (both from Macklin, China)."}, "[4]": {"test_system": "full-length PhoQ or an empty vector", "experiment": "GFP reporter assay, control cells", "format": "cell-based, E. coli MG1655/ΔPhoQ", "conditions": "40 min", "procedure": "The reporter plasmid pUA66-PmgtLA-GFP and the plasmid encoding the hybrid kinase were together transformed into E. coli MG1655/ΔPhoQ strain. E. coli cells containing the reporter and Tlp11-PhoQ chimera were incubated in Medium A, at 37°C, with shaking (200 rpm), until an OD600 of 0.4 was attained, following which different concentrations of methyl pyruvate were added to the medium and the cells were incubated for 40 min. The fluorescence intensity of the cells was monitored using a plate reader (Varioskan™ LUX, Life Technologies) equipped with a 488 nm laser and a 528/12 bandpass filter. The acquired data were analyzed using Prism 8.0.2.\nTo construct the signal input module, we fused the Tlp11-LBD with the PhoQ cytoplasmic region, to design the Tlp11-PhoQ hybrid kinases (Supplementary Figure S6), Tlp11[1-337]-PhoQ[200-486] (Tlp337PhoQ200), Tlp11[1-339]-PhoQ[200-486] (Tlp339PhoQ200), Tlp11[1-339]-PhoQ[201-486] (Tlp339PhoQ201), Tlp11[1-340]-PhoQ[202-486] (Tlp340PhoQ202), Tlp11[1-340]-PhoQ[200-486] (Tlp340PhoQ200), Tlp11[1-341]-PhoQ[202-486] (Tlp341PhoQ202), Tlp11[1-342]-PhoQ[[…]] (Tlp342PhoQ202), Tlp11[1-343]-PhoQ[202-486] (Tlp343PhoQ202), which connected Tlp11 and PhoQ in TM2 (Supplementary Figure S7C). The activity of each chimera in sensing methyl pyruvate was determined by measuring the fluorescence intensity of GFP in the E. coli MG1655/ΔPhoQ strain."}, "Tlp11-LBD V318A": {"target": "Tlp11-LBD V318A", "experiment": "MST of Tlp11-LBD mutant V318A", "format": "binding, C. jejuni ATCC 33560", "conditions": "max ligand 2.5 mM", "procedure": "as §1, §2"}},
  "data": [
    {"smiles": "COC(=O)C(C)=O", "note": "[methyl pyruvate, Methyl pyruvate]", "values": [
      {"measurement": "chemotactic response", "setting": "[1]", "value": "failed to show any chemotaxis"},
      {"measurement": "Kd", "setting": "[2]", "value": "1.9 ± 0.5", "unit": "mM"},
      {"measurement": "chemotactic response", "setting": "[3]", "value": "no chemotaxis"},
      {"measurement": "Kd (binding curve fit)", "setting": "Tlp11-LBD N268A", "value": "unable to obtain fitted Kd values"},
      {"measurement": "effect on growth of C. jejuni ATCC 33560", "setting": "C. jejuni ATCC 33560", "value": "significantly promoted the growth"},
      {"measurement": "response (GFP fluorescence intensity) of control cells", "setting": "[4]", "value": "almost no response"},
      {"measurement": "Kd (binding curve fit)", "setting": "Tlp11-LBD V318A", "value": "unable to obtain fitted Kd values"}
    ]}
  ]
}
